According to patent US4533662A, “2-Acylaminomethyl-1,4-benzodiazepine compounds and analgesic use” (Kali-Chemie Pharma GmbH, priority 1980, dated 1985):
Where a name gives a salt, the structure may show the parent alone.

What was measured:
mice [1] = assay: Tail flick test with mice; type: in vivo, male and female mice; details: Mus musculus, sc, 0.5 h; s.c., 30 min after administration; reaction time 75% longer in 50% of animals
Protocol: 3. Tail flick test with mice.
The method is based on the procedure described by d'Amour and Smith in 1941. In contrast thereto there are used, in place of rats, fed male and female mice of a body weight of 16 g. to 25 g. 30 minutes before treatment with the compound to be tested each mouse is placed into a separate cylindrical container of such a size that the mouse cannot turn around and cannot move forward. Its tail extends outwardly of the container while resting in a narrow trough. A specific spot of the tail of each animal (at a distance of about 35 mm. from the tail root) is exposed to the heat of radiation of a lamp of known strength and temperature. The lamp is positioned directly underneath the tail. The time in seconds which the mouse needs in order to jerk the tail out of the range of the light ray, is determined twice, once 30 minutes and another time 15 minutes before the subcutaneous administration of the compound (10 mg./kg) to be tested. Mice, the reaction time of which deviates by more than 25%, are eliminated and disregarded. The reaction times are again measured 15 minutes and 30 minutes after administration. An increase in the reaction times by more than 75% of the average reaction time values measured before administration of the test compound to the same mouse is considered an analgesic effect. […] The ED50 is calculated according to the method of Litchfield and Wilcoxon (1949).

rats = assay: Arthritis pain test with rats; type: in vivo, Male rats of the strain OFA; details: Rattus norvegicus, po, 3 hours after administration; protection (no or one squeak) in 50% of animals; read-out: Suppression of arthritis pain in rats ED50
Protocol: 2. Arthritis pain test with rats.
Male rats of the strain OFA weighing 160 g. to 180 g. are anesthesized by intraperitoneal administration of 20 mg./kg. of pentobarbital sodium. 0.1 ml. of suspension of Mycobacterium Smegmae (S I043) in paraffin oil (0.6 mg. of Mycobacterium in 0.1 ml. of paraffin oil) are injected intracutaneously into the left hind paw. Fourteen days thereafter, when a pronounced secondary arthritis has developed particularly in the right hind paw, the effects of the compound to be tested are investigated. 30 minutes before the administration of the compound to be tested, a control measurement is carried out by bending three times the ankle joint of the right hind paw and the number of squeaks produced by the animal are counted. […] Three hours after oral administration of the compound to be tested, the bending procedure is repeated. Animals which emit only one squeak or none at all, are considered to be protected against pain. Between 9 and 20 rats are tested per dose and the ED50 (95% confidence limit) is determined according to the method of Litchfield and Wilcoxon (1949). The dose which achieves protection in 50% of the treated animals is designated as the ED50.

mice [2] = assay: Determination of the minimum toxic dose in mice; type: in vivo, male mice; details: p.o., observed 3 hours, deaths and symptoms up to 24 hours; maximum dose 300 mg./kg.
Protocol: 1. Determination of the minimum toxic dose.
Maximum doses of 300 mg./kg. of the compound to be tested are administered per os to male mice of a weight of 20 g. to 25 g. The animals are carefully observed for any toxicity symptoms during 3 hours. In addition thereto all symptoms and deaths are registered for a period of time of 24 hours after administration of the drug. Any accompanying symptoms are also observed and registered. When death or toxic symptoms are observed, more and more decreasing doses are administered to other mice, until no more toxic symptoms are encountered. The lowest dose which causes toxic symptoms is given as the minimum toxic dose.

Structure (SMILES)	ED50 (mice [1]) [mg/kg]	ED50 (rats) [mg/kg]	Minimum toxic dose in mice (mice [2]) [mg/kg]
CN1c2ccccc2C(c2ccccc2)=NCC1CNC(=O)c1ccccc1 (centres unmarked) [Example 1, 1-Methyl-2-benzoyl amino methyl-5-phenyl-1H-2,3-dihydro-1,4-benzo diazepine]	0.52	19	> 300
COc1ccc2c(c1)N(C)C(CNC(=O)c1ccccc1)CN=C2c1ccc(F)cc1 (centres unmarked) [Example 2, 8-Methoxy-1-methyl-2-benzoyl amino methyl-5-(4'-fluorophenyl)-1H-2,3-dihydro-1,4-benzo diazepine]	0.64	2	50
COc1ccc2c(c1)N(C)C(CNC(=O)c1ccccc1)CN=C2c1ccc(Cl)cc1Cl (centres unmarked) [Example 4, 8-Methoxy-1-methyl-2-benzoyl amino methyl-5-(2',4'-dichlorophenyl)-1H-2,3-dihydro-1,4-benzo diazepine]	0.07	0.5	10
CN1c2ccccc2C(c2ccccc2)=NCC1CNC(=O)c1ccc(Cl)cc1Cl (centres unmarked) [Example 18]		7.5	> 300
CN1c2ccccc2C(c2ccccc2)=NCC1CNC(=O)c1ccc(Cl)c(Cl)c1 (centres unmarked) [Example 19, 1-Methyl-2-(3,4-dichlorobenzoylaminomethyl)-5-phenyl-1H--2,3-dihydro-1,4-benzo diazepine hydrochloride]	1	~2.3	> 300
COc1ccc(C(=O)NCC2CN=C(c3ccccc3)c3ccccc3N2C)cc1 (centres unmarked) [Example 20]	4.6	~4	300
Cc1ccc(C(=O)NCC2CN=C(c3ccccc3)c3ccccc3N2C)cc1 (centres unmarked) [Example 25]	2.5	3.2	
CN1c2ccccc2C(c2ccccc2)=NCC1CNC(=O)c1ccc([N+](=O)[O-])cc1 (centres unmarked) [Example 28]		0.6	> 300
CN1c2ccccc2C(c2ccccc2F)=NCC1CNC(=O)c1ccc(C#N)cc1 (centres unmarked) [Example 29]	21	1.7	300
COc1cccc(C(=O)NCC2CN=C(c3ccccc3F)c3ccccc3N2C)c1 (centres unmarked) [Example 31]	1.8	10 to 18	> 300
COc1ccc(C(=O)NCC2CN=C(c3ccccc3F)c3ccccc3N2C)cc1 (centres unmarked) [Example 32]	4.2	1.7	300
CN1c2ccccc2C(c2ccccc2F)=NCC1CNC(=O)c1ccc(C(F)(F)F)cc1 (centres unmarked) [Example 33]	1.4	5.6 to 10	> 300
CN1c2ccccc2C(c2ccccc2F)=NCC1CNC(=O)c1cccc(C#N)c1 (centres unmarked) [Example 35]	13	9	
COc1ccc(C(=O)NCC2CN=C(c3ccc(F)cc3)c3ccccc3N2C)cc1 (centres unmarked) [Example 40]		11	> 300
Cc1ccc2c(c1)C(c1ccccc1F)=NCC(CNC(=O)c1ccccc1)N2C (centres unmarked) [Example 47]	5.6	~13	> 300
CN1c2cc3c(cc2C(c2ccccc2)=NCC1CNC(=O)c1ccccc1)OCO3 (centres unmarked) [Example 49]	0.56	2.5	100
COc1ccc2c(c1)N(C)C(CNC(=O)c1ccccc1)CN=C2c1cccc(C(F)(F)F)c1 (centres unmarked) [Example 55]	5.6 to 10	10 to 18	
COc1ccc2c(c1)N(C)C(CNC(=O)c1ccccc1)CN=C2c1cccc(F)c1 (centres unmarked) [Example 58]	1.6	~18	300
CN1c2cc(F)ccc2C(c2ccccc2)=NCC1CNC(=O)c1ccccc1 (centres unmarked) [Example 59]	1	9.7	300
COc1ccc2c(c1)N(C)C(CNC(=O)c1ccccc1)CN=C2c1ccccc1F (centres unmarked) [Example 60]	0.32	3.5	300
COc1ccc(CC(=O)NCC2CN=C(c3ccccc3)c3cc(Cl)ccc3N2C)cc1OC (centres unmarked) [Example 112]	20	10	50
COc1ccc(CC(=O)NCC2CN=C(c3ccccc3)c3cc4c(cc3N2C)OCO4)cc1OC (centres unmarked) [Example 113]	< 5.6	18 to 32	100
CN1c2ccccc2C(c2ccccc2F)=NCC1CNC(=O)Cc1ccccc1Cl (centres unmarked) [Example 117]	13	6	> 300
CCN1c2ccccc2C(c2ccccc2F)=NCC1CNC(=O)c1ccc(C(F)(F)F)cc1 (centres unmarked) [Example 154]		2	
CCN1c2ccccc2C(c2ccccc2)=NCC1CNC(=O)c1ccc(C(F)(F)F)cc1 (centres unmarked) [Example 155]		~2	
